# In patent US12516022B2, “Derivatives of aryl hydrocarbon receptor agonists” (AZORA THERAPEUTICS, INC., priority 2021, dated 2026):
# Assay: Time course of conversion to indirubin in FaSSGF at 37° C.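 Further: compound incubated in fasted state simulated gastric fluid, species in samples quantified by UPLC-MS with UV (210–400 nm) and ELS detection.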
# Format: physicochemical
# Conditions: FaSSGF (Example 4; table title prints FaSSIF) 37° C.; for Conversion to indirubin: over a 24 hour period
Compound,indirubin (15 min) [%],indirubin methylene alcohol (15 min) [%],starting material (prodrug compound) (15 min) [%],indirubin (30 min) [%],indirubin methylene alcohol (30 min) [%],starting material (prodrug compound) (30 min) [%],indirubin (1 h) [%],indirubin methylene alcohol (1 h) [%],starting material (prodrug compound) (1 h) [%],indirubin (2 h) [%],indirubin methylene alcohol (2 h) [%],starting material (prodrug compound) (2 h) [%],indirubin (24 h) [%],indirubin methylene alcohol (24 h) [%],starting material (prodrug compound) (24 h) [%],Conversion to indirubin
CCN(CC)CN1C(=O)/C(=C2\Nc3ccccc3C2=O)c2ccccc21 [drawing 267],100,0,0,100,0,0,100,0,0,100,0,0,100,0,0,80-100%
CN(C)CCN(C)CN1C(=O)/C(=C2\Nc3ccccc3C2=O)c2ccccc21 [drawing 268],93,6,0,93,6,0,92,7,0,95,1,0,95,5,0,80-100%
O=C1/C(=C2/C(=O)N(CN3CCCCC3)c3ccccc32)Nc2ccccc21 [drawing 269],99,0,1,99,0,1,99,0,1,99,0,1,99,0,1,80-100%
O=C1/C(=C2/C(=O)N(CN3CCCC3)c3ccccc32)Nc2ccccc21 [drawing 270],100,0,0,100,0,0,100,0,0,100,0,0,99,1,0,80-100%
CN(C)CCN(CCN(C)C)CN1C(=O)/C(=C2\Nc3ccccc3C2=O)c2ccccc21 [drawing 271],90,5,4,94,4,2,87,9,3,91,8,2,90,9,1,80-100%
CN(C)C1CCN(CN2C(=O)/C(=C3\Nc4ccccc4C3=O)c3ccccc32)CC1 [drawing 272],51,5,41,55,5,36,44,10,46,44,10,46,61,1,31,60-80%
O=C1/C(=C2/C(=O)N(CO)c3ccccc32)Nc2ccccc21 [drawing 274],8,92,0,18,82,0,12,88,0,18,82,0,22,78,0,20-40%

# More lines, now with the values ahead:
indirubin (15 min) [%],indirubin methylene alcohol (15 min) [%],starting material (prodrug compound) (15 min) [%],indirubin (30 min) [%],indirubin methylene alcohol (30 min) [%],starting material (prodrug compound) (30 min) [%],indirubin (1 h) [%],indirubin methylene alcohol (1 h) [%],starting material (prodrug compound) (1 h) [%],indirubin (2 h) [%],indirubin methylene alcohol (2 h) [%],starting material (prodrug compound) (2 h) [%],indirubin (24 h) [%],indirubin methylene alcohol (24 h) [%],starting material (prodrug compound) (24 h) [%],Conversion to indirubin,Compound
23,0,75,18,0,76,24,0,74,24,0,76,41,0,58,40-60%,CN1CCN(CN2C(=O)/C(=C3\Nc4ccccc4C3=O)c3ccccc32)CC1 [drawing 273]
25,2,71,26,4,70,25,2,71,24,2,71,23,3,74,20-40%,O=C1/C(=C2/C(=O)N(CN3CCC3)c3ccccc32)Nc2ccccc21 [drawing 275]
7,0,89,8,0,85,10,5,85,11,3,80,29,3,68,20-40%,O=C1/C(=C2/C(=O)N(CN3CCOCC3)c3ccccc32)Nc2ccccc21 [drawing 276]
0,15,83,0,23,67,–,–,–,0,22,72,0,8,26,0-20%,O=C1/C(=C2/C(=O)N(COS(=O)(=O)O)c3ccccc32)Nc2ccccc21 [drawing 277]
7,0,69,12,0,61,11,0,82,9,0,58,10,0,86,0-20%,O=C1/C(=C2/C(=O)N(C(=O)NC3CCOCC3)c3ccccc32)Nc2ccccc21 [drawing 278]
0,0,100,0,0,100,0,0,100,0,0,100,0,0,100,0-20%,CNCCNC(=O)N1C(=O)/C(=C2\Nc3ccccc3C2=O)c2ccccc21.Cl [drawing 279]
–,–,–,–,–,–,–,–,–,–,–,–,–,–,–,0-20%,O=C1/C(=C2/C(=O)N(CN3CCC(F)(F)CC3)c3ccccc32)Nc2ccccc21 [drawing 280]
4,4,92,3,0,97,4,4,87,3,0,97,0,0,100,0-20%,CC(=O)N1CCN(CN2C(=O)/C(=C3\Nc4ccccc4C3=O)c3ccccc32)CC1 [drawing 281]
